Where “and” joins values, the source holds several entries; their conditions need not be identical. Identical values can stand only once. Blank lines part the entries; values can stand above or below the compound they belong to.
Key:
[1] = molecular target: T1, POP isolated from rat brain (Rattus norvegicus, UniProt O70196); test: POP inhibition assay (release of AMC from Cbz-Ala-Pro-AMC); format: biochemical; conditions: substrate Cbz-Ala-Pro-AMC 20 μM, 30 min at 37°C, pH 7.5, read-out: IC50, POP inhibitory activity
T1 construct: the resulting POP preparation was a homogeneous monomer with molecular weight of 75 kDa; from tissue; host or cells: rat brain
T1 sequence (O70196 1-710): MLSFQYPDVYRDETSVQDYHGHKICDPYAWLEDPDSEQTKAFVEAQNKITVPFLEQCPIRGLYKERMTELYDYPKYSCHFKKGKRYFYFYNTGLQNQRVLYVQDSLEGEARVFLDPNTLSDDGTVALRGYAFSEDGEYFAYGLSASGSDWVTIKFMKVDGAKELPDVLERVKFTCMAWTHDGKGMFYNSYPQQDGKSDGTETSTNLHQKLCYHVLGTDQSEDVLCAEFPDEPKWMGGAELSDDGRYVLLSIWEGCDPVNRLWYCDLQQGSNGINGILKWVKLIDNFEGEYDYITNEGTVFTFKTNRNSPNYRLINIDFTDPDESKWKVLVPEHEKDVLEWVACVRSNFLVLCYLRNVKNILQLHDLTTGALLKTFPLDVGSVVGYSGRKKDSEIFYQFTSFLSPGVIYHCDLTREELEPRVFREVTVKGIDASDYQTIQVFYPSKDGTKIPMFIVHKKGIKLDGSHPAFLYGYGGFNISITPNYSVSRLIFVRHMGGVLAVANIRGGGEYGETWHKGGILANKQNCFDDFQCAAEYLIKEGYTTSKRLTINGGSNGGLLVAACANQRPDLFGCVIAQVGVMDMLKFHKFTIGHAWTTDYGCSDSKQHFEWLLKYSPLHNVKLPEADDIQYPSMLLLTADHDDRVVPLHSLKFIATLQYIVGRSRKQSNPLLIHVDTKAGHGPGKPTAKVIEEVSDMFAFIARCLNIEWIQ
Description: Briefly, rat brain homogenate was precipitated with ammonium sulfate, followed by ion exchange chromatography on DEAE-Sephadex A-50, gel chromatography on Sephadex G-75, and high-performance liquid chromatography on a MonoQ column using FPLC. […] Purified POP was concentrated by ultrafiltration and stored at −80°C.
The reaction was initiated by addition of the substrate (20 μM) in a final reaction volume of 2 ml. The incubation mixture consisted of 50 μl of the enzyme preparation in 20 mM Tris-HCl buffer (pH 7.5) with 1 mM EDTA, 1 mM dithiothreitol, and 0.1% NP–40; 50 μl of 1 mg/ml substrate solution in DMSO; and 1.9 ml of Tris-HCl buffer. […] After a 30-min incubation at 37°C, the reaction was stopped by addition of 1 ml of acetate buffer (pH 4.0). The AMC concentration was determined on an LS–5B spectrofluorometer (Perkin–Elmer, United States) with excitation and emission wavelengths of 380 and 460 nm, respectively.

[2] = system: scopolamine-induced amnesia; test: Scopolamine-induced amnesia of conditioned passive avoidance reflex (CPAR); format: in vivo, rat; conditions: for CPAR retention time, scopolamine-induced amnesia: doses 1 and 2 mg/kg i.p., vs scopolamine only
Description: (§1) The development of CPAR was performed on a standard passive avoidance device from Lafayette Instrument Co. (United States). The device consists of a small platform located at a distance of 1 m from the floor, illuminated by a special lamp, and a dark chamber with an electrode floor. During learning, a rat was placed on the small platform in front of the entrance to the dark chamber. Immediately after entering the dark chamber, the rat received a painful stimulation from an electric current of 0.6 mA through the electrode floor lasting 10 s or until the rat ran out of the chamber (learning). […] If the rat entered the dark chamber, the training was repeated. A test for the refiex reproduction was performed after 24 h. In this case, the rat was placed on a lighted area, and step-through latency time (STL) of its entry into the dark chamber was recorded. The observation time was 3 min. The criterion for refiex reproduction was considered to be the STL of entry into the dark box.
Experiments were performed using two rat models of amnesia. In the first model, effects of POP inhibitors on scopolamine-induced amnesia were studied. The series included eighteen groups of animals (137 rats). Rats in the negative control group (group 1, n = 8) received 2 ml of vehicle (physiological saline solution containing 1% Tween 80) i.p. 40 min before the CPAR learning. Rats in the non-treated group (group 2, n = 7) received scopolamine (1 mg/kg, i.p. in 2 ml of vehicle) 20 min before the CPAR learning. […].

MES-induced amnesia = MES-induced amnesia of conditioned passive avoidance reflex (CPAR); format: in vivo; conditions: rat; for Antiamnesic activity, MES-induced amnesia, 1 and 2 mg/kg: doses of 1 and 2 mg/kg; for Potency in comparison with piracetam, MES-induced amnesia: vs piracetam 300 mg/kg; for Antiamnesic activity, MES-induced amnesia, 1 mg/kg: comparable with piracetam 300 mg/kg
Description: as §1
In the second model, effects of POP inhibitors on MES-induced amnesia were studied. The series included fifteen groups of animals (110 rats). Rats in the negative control group (group 1, n = 8) received 2 ml of vehicle (physiological saline solution containing 1% Tween 80) i.p. 30 min before the CPAR learning. Rats in the positive control group (group 2, n = 7) received MES just after CPAR learning. MES was induced using an electric shock generator from Harvard Apparatus (Holliston, MA, United States) consisting of a current (250 V, 120–122 20 mA, delivered for 0.1 s) by way of corneal electrodes. Rats of groups 3–14 received a single injection of POP inhibitor at doses of 0.5, 1, and 2 mg/kg, including BocTrpPrdN (groups 3–5, n = 7 in each), BocGlyPrdN (groups 6–8, n = 6 in each), CbzMetPrdN (groups 9–11, n = 8 in each), and CbzGlnPrdN (groups 12–14, n = 8 in each) 40 min prior to the CPAR learning (three groups of animals for each inhibitor) with following MES just after CPAR learning. Rats in group 15 (n = 8) received piracetam (300 mg/kg, i.p.) 50 min before the CPAR learning and MES just after CPAR learning.

[3] = Tissue concentration of CbzMetPrdN in the brain after single i.p. administration; format: in vivo; conditions: single i.p. 20 mg/kg
Description: (§2) The total drug concentrations for CbzMetPrdN and POP activity in the brain were determined as a function of time at 0, 20, 40, 60, 80, and 120 min (n = 3 for each time-point) after a single 20 mg/kg intraperitoneal (i.p.) administration of CbzMetPrdN. The test animals were sacrificed, and their brains were harvested and immediately homogenized in phosphate buffer saline.
For measurement of the brain tissue concentration of CbzMetPrdN, the homogenate was mixed with an equal volume of methanol and centrifuged at 3,000 g for 10 min. The supernatant was concentrated to 2 ml, followed by solid phase extraction in a Retain AX SPE cartridge (Thermo Fisher Scientific). The cartridge was washed with 1 ml of 5% ammonia solution and then with 1 ml of methanol. The sample was eluted with 1 ml of 2% trifluoroacetic acid in methanol and analyzed using a Gilson 41 HPLC system (Gilson, United Kingdom) with a 125 × 4 mm Nucleosil C18 column (Macherey-Nagel). The column was washed for 3 min with 4 mM hexanesulfonate in water (pH 3.5), followed by a 0–100% gradient of 4 mM hexanesulfonate in acetonitrile:water (50:50) % (v/v) over 10 min. The concentration of the POP inhibitor is expressed in ng of CbzMetPrdN per mg of brain protein.

[4] = system: dipeptidyl peptidase IV (DPP-4); set-up: method as in Ivanova et al., 2020; conditions: ref Ivanova et al., 2020; cited from earlier work
[5] = system: MPTP-induced Parkinsonian syndrome; set-up: method as in earlier work; conditions: ref Khlebnikova et al., 2009b, Krupina et al., Khlebnikova et al., 2012, 2013a, 2013b, Kalinina et al., 2019; cited from earlier work
POP = molecular target: T2, POP (Rattus norvegicus, UniProt O70196); test: POP activity in brain tissue homogenate after single i.p. administration; format: in vivo
T2 construct: from tissue; host or cells: brain homogenate of rats dosed i.p. with CbzMetPrdN
T2 sequence (O70196 1-710): T1 sequence (O70196 1-710)
Description: as §2
POP activity in the brain tissue homogenate was measured using Cbz-Ala-Pro-AMC, as described above, and is presented as nmole AMC released/min/mg of brain protein. Protein concentrations of the supernatants were determined with a Bio-Rad protein assay kit.

[6] = set-up: method as in Jalkanen et al., 2011a; Jalkanen et al., 2014; conditions: mouse and rat, ref Jalkanen et al., 2011a, 2014; cited from earlier work

SMILES: CC(C)(C)OC(=O)NCC(=O)N1CCC[C@H]1C#N [BocGlyPrdN, N-(tert-butoxycarbonyl)glycyl-(2S)-pyrrolidine-2-carbonitrile]
IC50 [1]: 12 ± 3 nM | CPAR retention time, scopolamine-induced amnesia ([2]; rat, scopolamine 1 mg/kg): significantly prolonged CPAR retention time | Antiamnesic activity, MES-induced amnesia, 1 and 2 mg/kg (MES-induced amnesia): exhibited antiamnesic activity | Potency in comparison with piracetam, MES-induced amnesia (MES-induced amnesia): less potent

SMILES: CC(C)(C)OC(=O)N[C@@H](Cc1c[nH]c2ccccc12)C(=O)N1CCC[C@H]1C#N [BocTrpPrdN, N-(tert-butoxycarbonyl)-L-tryptophanyl-(2S)-pyrrolidine-2-carbonitrile]
IC50 [1]: 9 ± 0.9 nM | Antiamnesic activity, scopolamine-induced amnesia (overall) ([2]; rat, 0.5-2 mg/kg i.p., scopolamine 1 mg/kg): clear tendency toward antiamnesic activity | Antiamnesic activity, MES-induced amnesia, 1 and 2 mg/kg (MES-induced amnesia): exhibited antiamnesic activity | Potency in comparison with piracetam, MES-induced amnesia (MES-induced amnesia): less potent

SMILES: C[C@H](NC(=O)OCc1ccccc1)C(=O)N1CCC[C@H]1C#N [CbzAlaPrdN, N-benzoxycarbonyl-L-alanyl-(2S)-pyrrolidine-2-carbonitrile]
Antiamnesic effect, scopolamine-induced amnesia, all doses ([2]; rat, 0.5, 1 and 2 mg/kg i.p., scopolamine 1 mg/kg): not effective

IC50 [1]: ~2 nM and 2 nM
SMILES: N#C[C@@H]1CCCN1C(=O)[C@H](CCC(N)=O)NC(=O)OCc1ccccc1 [CbzGlnPrdN, N-Benzyloxycarbonyl-L-glutaminyl-(2S)-pyrrolidine-2-carbonitrile]
CPAR retention time, scopolamine-induced amnesia ([2]; rat, scopolamine 1 mg/kg): significantly prolonged CPAR retention time | Antiamnesic activity, MES-induced amnesia, 1 mg/kg (MES-induced amnesia): potent antiamnesic activity

Time point with maximal concentration in the brain ([3]; rat): 60 min | Accumulation in rat brain tissue ([3]; 0-120 min): accumulated in the brain | IC50 [1]: 2.1 ± 0.6 nM | Inhibition of POP in the brain (POP; administered intraperitoneally): effectively inhibits POP in the brain | Time of maximal inhibition of brain POP activity (POP; single i.p. 20 mg/kg): 60 min
SMILES: CSCC[C@H](NC(=O)OCc1ccccc1)C(=O)N1CCC[C@H]1C#N [CbzMetPrdN, N-Benzyloxycarbonyl-L-methionyl-(2S)-pyrrolidine-2-carbonitrile]
Inhibition of DPP-4 activity [4]: inhibited activity | CPAR retention time, scopolamine-induced amnesia ([2]; rat, scopolamine 1 mg/kg): significantly prolonged CPAR retention time | Effect in preclinical model of Parkinsonian syndrome (MPTP) [5]: exhibited neuroprotective activity and abolished depressive symptoms | Antiamnesic activity, MES-induced amnesia, 1 mg/kg (MES-induced amnesia): potent antiamnesic activity

SMILES: N#C[C@@H]1CCCN1C(=O)[C@@H]1CCCN1C(=O)CCCc1ccccc1 [KYP-2047, (2S)-1-[[(2S)-1-(1-oxo-4-phenylbutyl)-2-pyrrolidinyl]carbonyl]-2-pyrrolidinecarbonitrile]
Brain penetration [6]: penetrates mouse and rat brains

SMILES: CN1[C@@H]2C[C@@H](OC(=O)[C@H](CO)c3ccccc3)C[C@H]1[C@@H]1O[C@@H]12 [scopolamine, reference compound]
Latency period (STL) in CPAR test ([2]; rat, scopolamine 1 mg/kg i.p. 20 min before learning, vehicle-treated rats 145.0 ± 21.7 s): 23.5 ± 9.6 s
